Experiments:
[1] = target: T1, adenosine (purine) receptors (Cavia porcellus, UniProt P47745); assay: guinea pig ileum twitch test, antagonism of purine receptors (agonist 2-chloroadenosine); conditions: slope in parentheses after pA2
T1 construct: Ilea were removed from sacrificed guinea pigs and placed in organ baths; from tissue; host or cells: guinea pig ileum
T1 sequence (P47745 1-326): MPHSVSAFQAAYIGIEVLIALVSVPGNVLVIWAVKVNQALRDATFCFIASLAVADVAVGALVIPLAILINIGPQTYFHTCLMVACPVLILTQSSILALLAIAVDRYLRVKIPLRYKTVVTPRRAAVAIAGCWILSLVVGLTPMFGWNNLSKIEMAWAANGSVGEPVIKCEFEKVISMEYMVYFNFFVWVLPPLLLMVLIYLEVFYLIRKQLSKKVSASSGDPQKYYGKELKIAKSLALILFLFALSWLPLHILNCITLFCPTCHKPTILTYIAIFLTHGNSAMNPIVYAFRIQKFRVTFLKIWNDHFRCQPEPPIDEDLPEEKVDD
Experimental: Accordingly, a representative number of compounds of the present invention were tested for their ability to antagonise the purine receptors using the guinea pig ileum test system.
Ilea were removed from sacrificed guinea pigs and placed in organ baths containing oxygenated Krebs-Henseleit buffer. After equilibration, the ilea were stimulated to contract (twitch contraction) using an electrical field-stimulus of 0.1 Hz, 0.5 ms duration and maximal voltage. Under these conditions, the twitch contraction results from the release of acetylcholine.
Concentration response curves to the purine agonist, 2-chloroadenosine, were determined first in the absence and then in the presence of multiple concentrations of the compounds of the invention. One concentration of each compound was used per tissue. Quantification of purine receptor antagonism was accomplished using the Schild regression technique, i.e. plots of log (dose-ratio-1) vs log compound concentration, and the pA2 determined by regression of the data points to the x-intercept, where log (dose-ratio-1) is zero.

HIV = assay: anti-HIV activity, in-vitro assay system; assay type: cell-based; set-up: key to ED50 (expressed as active (+) or very active (++)): +: active; ++: very active; conditions: for EC50: Human immunodeficiency virus 1, 50% effective dose estimated, read-out: μM ED50; for EC50 / ED50 (expressed as active (+) or very active (++)): in vitro anti-HIV; for ED50 (expressed as active (+) or very active (++)): grade
Experimental: The anti-HIV activity of various compounds was tested using an in-vitro assay system as described in H Mitsuya et al; (Proc Natl. Acad.Sci. USA Vol 82 pp 7096-7100, October 1985)

CCCn1c(=O)c2nc(-c3ccc(/C=C/C(=O)O)cc3)[nH]c2n(CCC)c1=O [Example 6, (E)-4-(1,2,3,6-tetrahydro-2,6-dioxo-1,3-dipropyl-9H-purin-8-yl)cinnamic acid]
slope (Schild regression) [1]: 0.9

CCCn1c(=O)n(C)c(=O)c2nc(-c3ccc(/C=C/C(=O)O)cc3)[nH]c21 [Example 11, (E)-4-(1,2,3,6-tetrahydro-1-methyl-2,6-dioxo-3-propyl-9H-purin-8-yl)cinnamic acid]
slope (Schild regression) [1]: 1.0

CCCCn1c(=O)c2nc(-c3ccc(/C=C/C(=O)O)cc3)[nH]c2n(CCCC)c1=O [Example 14, (E)-4-(1,3-dibutyl-1,2,3,6-tetrahydro-2,6-dioxo-9H-purin-8-yl)cinnamic acid]
EC50 (HIV): 30 µM
ED50 (expressed as active (+) or very active (++)) (HIV): +
slope (Schild regression) [1]: 1.0

O=C(O)/C=C/c1ccc(-c2nc3c(=O)n(Cc4ccccc4)c(=O)n(Cc4ccccc4)c3[nH]2)cc1 [Example 15, (E)-4-(1,3-dibenzyl-1,2,3,6-tetrahydro-2,6-dioxo-9H-purin-8yl) cinnamic acid]
EC50 (HIV): 3 to 15 µM
antiviral / anti-retroviral activity, in words (HIV; against AIDV / retroviruses, statement in words, listed as compound 14): especially potent activity against AIDV
ED50 (expressed as active (+) or very active (++)) (HIV): ++
slope (Schild regression) [1]: 0.9

Cn1c(=O)c2nc(-c3ccc(/C=C/C(=O)O)cc3)[nH]c2n(Cc2ccccc2)c1=O [Example 18, (E)-4-(3-benzyl-1,2,3,6-tetrahydro-1-methyl-2,6-dioxo-9H-purin-8yl) cinnamic acid]
slope (Schild regression) [1]: 0.9

CC(C)Cn1c(=O)c2nc(-c3ccc(/C=C/C(=O)O)cc3)[nH]c2n(CC(C)C)c1=O [Example 19, (E)-4-(1,2,3,6-tetrahydro-1,3-diisobutyl-2,6-dioxo-9H-purin-8-yl)cinnamic acid]
slope (Schild regression) [1]: 1.0

CCCn1c(=O)n(Cc2ccccc2)c(=O)c2nc(-c3ccc(/C=C/C(=O)O)cc3)[nH]c21 [Example 25, (E)-4-(1-Benzyl-1,2,3,6-tetrahydro-2,6-dioxo-3-propyl-9H-purin-8-yl)cinnamic acid]
EC50 (HIV): 30 µM
ED50 (expressed as active (+) or very active (++)) (HIV): +

CCCn1c(=O)c2nc(-c3ccc(/C=C/C(=O)O)cc3)[nH]c2n(Cc2ccccc2)c1=O [Example 26, (E)-4-(3-Benzyl-1,2,3,6-tetrahydro-2,6dioxo-1-propyl-9H-purin-8-yl)cinnamicacid]
EC50 (HIV): 30 µM
ED50 (expressed as active (+) or very active (++)) (HIV): +

Cn1c(=O)c2[nH]cnc2n(C)c1=O [THEOPHYLLINE, 1,3-dimethylxanthine, reference compound]
slope (Schild regression) [1]: 1.1
